Measurements as given in ChEMBL document CHEMBL2439958, “Inhibitory effect of oxygenated cholestan-3β-ol derivatives on the growth of Mycobacterium tuberculosis” (Bioorg Med Chem Lett, 2013).
Values after ≈ are worked out from the molar mass of the structure shown.

Assays:
Vero = assay: Cytotoxicity against african green monkey Vero cells by tetrazolium dye reduction assay; format: ADME, cell-based; conditions: Chlorocebus sabaeus
[1] = tested on: Mycobacterium tuberculosis; assay: microbe, parasite or virus in culture; format: functional; conditions: H37Rv
[2] = Selectivity index, ratio of IC50 for african green monkey Vero cells to MIC90 for Mycobacterium tuberculosis H37Rv; format: functional

| SMILES | IC50 (Vero) [µM] | MIC90 [1] [µM] | Selectivity Index [2] |
| --- | --- | --- | --- |
| CC(=O)O[C@H]1CC[C@@]2(C)C(=CC(=O)[C@H]3[C@@H]4CC[C@H]([C@H](C)CCCC(C)C)[C@@]4(C)CC[C@@H]32)C1 [7-OXOCHOLESTERYL ACETATE] | > 128 | > 128 |  |
| CC(=O)O[C@H]1CC[C@@]2(C)C(=CC(=O)[C@H]3[C@@H]4CC[C@H]([C@H](C)CCCC(C)(C)O)[C@@]4(C)CC[C@@H]32)C1 | > 128 | > 128 |  |
| C[C@@H](CO)CCC[C@@H](C)[C@H]1CC[C@H]2[C@@H]3CC=C4C[C@@H](O)CC[C@]4(C)[C@H]3CC[C@]12C |  | > 128 |  |
| CC(C)CCC[C@@H](C)[C@H]1CC[C@H]2[C@@H]3[C@H](F)C(=O)[C@H]4C[C@@H](O)CC[C@]4(C)[C@H]3CC[C@]12C | 40 | 4.6 (≈ 1.94 µg/mL) | 8.7 |
| CO[C@H]1/C=C/O[C@@]2(C)Oc3c(C)c(O)c4c(O)c(c(/C=N/N5CCN(C)CC5)c(O)c4c3C2=O)NC(=O)/C(C)=C\C=C\[C@H](C)[C@H](O)[C@@H](C)[C@@H](O)[C@@H](C)[C@H](OC(C)=O)[C@@H]1C [RIFAMPIN] |  | 0.07 (≈ 0.0576 µg/mL) |  |
| C[C@@H]1CC[C@@]2(OC1)O[C@H]1C[C@H]3[C@@H]4CC=C5C[C@@H](O)CC[C@]5(C)[C@H]4CC[C@]3(C)[C@H]1[C@@H]2C [DISOGENIN] |  | > 128 |  |
| CC(C)CCC[C@@H](C)[C@H]1CC[C@H]2[C@@H]3CC(=O)[C@H]4C[C@@H](O)CC[C@]4(C)[C@H]3CC[C@]12C [5alpha-CHOLESTAN-3beta-OL-6-ONE] | 92 | 6 (≈ 2.42 µg/mL) | 15.3 |
| CC(=O)O[C@H]1CC[C@@]2(C)[C@@H](CC(=O)[C@@H]3[C@@H]2CC[C@]2(C)[C@@H]([C@H](C)CCCC(C)(C)O)CC[C@@H]32)C1 | > 128 | > 128 |  |
| CC(C)CCC[C@@H](C)[C@H]1CC[C@H]2[C@@H]3C(=O)C=C4C[C@@H](O)CC[C@]4(C)[C@H]3CC[C@]12C [7-OXOCHOLESTEROL] | 75 | > 128 | <0.6 |
| C[C@H](CCCC(C)(C)O)[C@H]1CC[C@H]2[C@@H]3[C@@H](O)C[C@H]4C[C@@H](O)CC[C@]4(C)[C@H]3CC[C@]12C | > 128 | 24 (≈ 10.1 µg/mL) | >5.3 |
| CC(C)CCC[C@@H](C)[C@H]1CC[C@H]2[C@@H]3[C@H](F)[C@@H](O)[C@H]4C[C@@H](O)CC[C@]4(C)[C@H]3CC[C@]12C | 41 | > 128 | <0.4 |
| C[C@H](CCCC(C)(C)O)[C@H]1CC[C@H]2[C@@H]3[C@H](O)C[C@H]4C[C@@H](O)CC[C@]4(C)[C@H]3CC[C@]12C |  | > 128 |  |
| CC(=O)O[C@H]1CC[C@@]2(C)[C@@H](CC(=O)[C@@H]3[C@@H]2CC[C@]2(C)[C@@H]([C@H](C)CCCC(C)C)CC[C@@H]32)C1 | > 128 | > 128 |  |
| CC(C)CCC[C@@H](C)[C@H]1CC[C@H]2[C@@H]3[C@H](O)C[C@H]4C[C@@H](O)CC[C@]4(C)[C@H]3CC[C@]12C |  | > 128 |  |
| CC(C)CCC[C@@H](C)[C@H]1CC[C@H]2[C@@H]3[C@@H](O)C[C@H]4C[C@@H](O)CC[C@]4(C)[C@H]3CC[C@]12C |  | > 128 |  |
| C[C@@H](CO)CCC[C@@H](C)[C@H]1[C@@H](O)C[C@H]2[C@@H]3CC=C4C[C@@H](O)CC[C@]4(C)[C@H]3CC[C@]12C | > 128 | 6 (≈ 2.51 µg/mL) | >21 |
| C[C@H](CCCC(C)(C)O)[C@H]1CC[C@H]2[C@@H]3CC=C4C[C@@H](O)CC[C@]4(C)[C@H]3CC[C@]12C | > 128 | > 128 |  |
| CC(C)CCC[C@@H](C)[C@H]1CC[C@H]2[C@@H]3CC(=O)[C@H]4C[C@@H](O[Si](C)(C)C)CC[C@]4(C)[C@H]3CC[C@]12C | 38 | 3.5 (≈ 1.66 µg/mL) | 10.9 |
| NNC(=O)c1ccncc1 [ISONIAZID] | > 128 | 0.4 (≈ 0.0549 µg/mL) | >320 |
| CC(C)CCC[C@@H](C)[C@H]1CC[C@H]2[C@@H]3C(=O)C[C@H]4C[C@@H](O)CC[C@]4(C)[C@H]3CC[C@]12C | 62 | 8 (≈ 3.22 µg/mL) | 7.8 |
| CC(=O)O[C@H]1CC[C@@]2(C)C(=CC[C@H]3[C@@H]4CC[C@H]([C@H](C)CCCC(C)(C)O)[C@@]4(C)CC[C@@H]32)C1 |  | > 128 |  |
